Measurements reported in patent US5714508A, “Bicycle Derivatives of imidazole” (Roussel Uclaf, priority 1993, dated 1998).

How the values were obtained:
[1] = biological target: T1, angiotensin II receptor (Rattus norvegicus, UniProt P25095); test: Test on the angiotensin II receptor (displacement of 125I angiotensin II from rat liver membranes); format: binding; conditions: rat liver membrane preparation, 25° C., 150 minutes, Tris buffer pH 7.4, read-out: IC50 in Nanomoles
T1 construct: A fresh membrane preparation obtained from rat's liver was used; from tissue; host or cells: rat liver membranes
T1 sequence (P25095 1-359): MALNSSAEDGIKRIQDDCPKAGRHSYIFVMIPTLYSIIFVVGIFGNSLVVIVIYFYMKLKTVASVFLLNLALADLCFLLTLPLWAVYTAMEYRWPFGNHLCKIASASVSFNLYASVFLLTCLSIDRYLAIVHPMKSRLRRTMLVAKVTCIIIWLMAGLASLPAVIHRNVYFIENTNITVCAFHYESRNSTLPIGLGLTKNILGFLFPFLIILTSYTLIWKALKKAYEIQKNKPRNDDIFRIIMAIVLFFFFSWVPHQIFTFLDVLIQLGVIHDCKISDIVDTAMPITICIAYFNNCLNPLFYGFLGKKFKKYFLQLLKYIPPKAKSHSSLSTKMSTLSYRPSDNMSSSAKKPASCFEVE
Protocol: 1--Test on the angiotensin II receptor
A fresh membrane preparation obtained from rat's liver was used and the tissue was ground up in a polytron in a 50 mM Tris buffer pH 7.4. The grinding process was followed by 3 centrifugations at 30,000 g for 15 minutes with intermediate taking up of the pellets in the Tris buffer pH 7.4. The last pellets were suspended in an incubation buffer (20 mM Tris, 135 mM NaCl, 10 mM KCl, 5 mM glucose, 10 mM MgCl2, 0.3 mM PMSF, 0.1 mM bacitracin, 0.2% BSA. 2 ml aliquoted fractions were distributed in hemolysis tubes and 125I angiotensin II (25,000 DPM/tube) and the product under test were added. The product was first tested at 3×10^-5 M three times. When the product tested displaced more than 50% of the radioactivity linked specifically to the receptor, it was tested again in a range of 7 concentrations to determine the concentration which inhibited 50% of the radioactivity linked specifically to the receptor. In this way, the 50% inhibiting concentration was determined.
The non-specific bond was determined by the addition of a product of Example 94 of European Patent No. 0,253,310 at 10^-5 M (three times). After incubation at 25° C. for 150 minutes, the suspension was put in a water-bath at 0° C. for 5 minutes, filtered under vacuum, rinsed with a Tris pH 7.4 buffer and the radioactivity was counted in the presence of scintillating Triton. The result was expressed directly as a 50% inhibiting concentration (IC50), that is to say the concentration of product studied, expressed in […], necessary to displace 50% of the specific radioactivity fixed to the receptor studied.

[2] = test system: angiotensin II; test: Test of the antagonistic activity of angiotensin II in a demedullated rat (diastolic arterial pressure); format: in vivo, Male Sprague Dawley rats; conditions: iv, venous route, injected 5 minutes before angiotensin II (0.75 micrograms/kg), pressure effects, read-out: 50% Inhibitory Doses
Protocol: 2--Test of the antagonistic activity of angiotensin II in a demedullated rat
Male Sprague Dawley rats weighing 250 to 350 g were anaesthetized by an intraperitoneal injection of sodium pentobarbital (60 mg/kg). The diastolic arterial pressure was recorded with a heparinated catheter (PE50) introduced into the left carotid of the animal and connected to a pressure processor (Gould, Pressure Processor) via a Gould pressure sensor. A catheter was introduced into the right jugular of the animal for the injection of the molecules to be studied. The animal was placed under assisted respiration and a bilateral section of the vagus nerves was carried out. The rat was then demedullated.
After a sufficient period of stabilization, study of the antagonism of the compound vis-a-vis angiotensin II (Hypertensin Ciba) was started in the following way.
1--Three consecutive injections of angiotensin II (0.75 micrograms/kg) spaced 15 minutes apart which allowed a reproducible and stable pressure response to be obtained. […]
The pressure effects of the angiotensin II in the presence of the antagonist were expressed as a percentage of the pressure effects of the angiotensin II administered alone. The 50% inhibitory dose of the studied effect was thus determined. […]

IC50 [1]	Structure (SMILES)	ED50 [2]
1.3 nM	CCCCc1nc2c(n1Cc1ccc(-c3ccccc3S(=O)(=O)NC(=O)NCCC)cc1)C(=O)CCS2 [Example 3, 4'-[(2-butyl-6,7-dihydro-7-oxo-thiopyrano-(2,3-d)imidazol-1-(5H)-yl)-methyl]-N-[(propylamino)-carbonyl]-(1,1,'-biphenyl)-2-sulfonamide]	0.08 mg/kg
0.2 nM	CCCCc1nc2c(n1Cc1ccc(-c3ccccc3S(=O)(=O)NC(=O)OCC)cc1)C(=O)CCS2 [Example 4]	0.09 mg/kg
5.3 nM	CCCCc1nc2c(n1Cc1ccc(-c3ccccc3S(=O)(=O)NC(=O)NCCC)cc1)C(=NO)CCS2 [Example 7, 4'-[(2-butyl-7-(hydroxyimino)-1,5,6,7-tetrahydro-thiopyrano[2,3-d)-imidazol-1-yl)-methyl]-N-[(propylamino)-carbonyl]-(1,1'-biphenyl)-2-sulfonamide]	
